For one data set, the system named is wild-type HIV-1 (IIIB). As to the kind of experiment: microbe, parasite or virus in culture. It is filed as cell-based. The following applies: for EC50: Human immunodeficiency virus 1, MT4, MT-4 cells, HIV-1 IIIB, MTT method; for RF IIIB: ratio EC50(resistant strain)/EC50(wild-type strain); for SI IIIB: selectivity index, ratio CC50/EC50, IIIB. As for the experimental part: (§1) All data were calculated using the median optical density (OD) value of three wells.

In data set [1] the test system is HIV-1 double-mutant strain RES056 (K103N/Y181C). The data set is described as follows: microbe, parasite or virus in culture. It is filed as cell-based. As to conditions: for EC50: Human immunodeficiency virus 1, MT4, read-out: EC50 RES056; for RF RES056: ratio EC50(resistant strain)/EC50(wild-type strain); for SI RES056: selectivity index, ratio CC50/EC50, RES056. As for the experimental part: as §1

The nature of data set [2]: Cytotoxicity in mock-infected MT-4 cells, MTT method. In kind it is cell-based. The following applies: human. Here is the method: The 3-(4,5-dimethylthiazol-2-yl)-2,5-diphenyltetrazolium bromide (MTT) method was used to evaluate the antiviral activity and cytotoxicity of the synthesized compounds as previously described. At the beginning of each experiment, stock solutions (10× final concentration) of test compounds were added in 25 μL volumes to two series of triplicate wells for allowing the simultaneous evaluation of their effects on mock- and HIV-infected cells. The serial 5-fold dilutions of the compounds were made in flat-bottomed 96-well microtiter trays directly, including untreated control HIV-1 and mock infected cell samples for each sample using a Biomek 3000 robot (Beckman Instruments, Fullerton, CA, USA). HIV-1 (IIIB) and mutant HIV-1 strains (RES056, F227L/V106A, L100I, K103N, E138K, Y181C, and Y188L) stock (50 μL at 100–300 CCID50) (50% cell culture infectious dose) or culture medium was added to either the infected or mock-infected wells of the microtiter tray. Mock-infected cells were used to evaluate the effect on uninfected cells to assess the cytotoxicity of the test compounds. Exponentially growing MT-4 cells were centrifuged for […] at 1000 rpm (Eppendorf 5424, Hamburg, Germany) and then the supernatant was discarded. The MT-4 cells were resuspended at 6 × 10^5 cells/mL and 50 μL aliquots were transferred to the microtiter tray wells. At 5 days after infection, the viability of mock- and HIV-infected cells was determined spectrophotometrically by means of MTT assay.
The MTT assay is based on the reduction of yellow-colored MTT (Acros Organics, Geel, Belgium) by mitochondrial dehydrogenase of metabolically active cells to form a blue-purple formazan. The absorbances were read in an eight-channel computer-controlled photometer at the wavelengths of 540 and 690 nm. All data were calculated using the median optical density (OD) value of three wells.

In data set [3] the test system is HIV-1 Y188L mutant strain. As to the kind of experiment: microbe, parasite or virus in culture. In kind it is cell-based. The following applies: for EC50: Human immunodeficiency virus 1, MT4, read-out: EC50 Y188L. Here is the method:
as §1

The test system of data set [4] is HIV-1 L100I mutant strain. As to the kind of experiment: microbe, parasite or virus in culture. In kind it is cell-based. As to conditions: for EC50: Human immunodeficiency virus 1, MT4, read-out: EC50 L100I. As for the experimental part: as §1
For data set [5], the system named is HIV-1 K103N mutant strain. The data set is described as follows: microbe, parasite or virus in culture. As to conditions: for EC50: Human immunodeficiency virus 1, MT4, read-out: EC50 K103N, MT-4 cells, K103N, MTT method. It is filed as cell-based. As for the experimental part:
as §1

The subject of data set [6] is HIV-1 Y181C mutant strain. The data set is described as follows: microbe, parasite or virus in culture. As to conditions: for EC50: Human immunodeficiency virus 1, MT4, read-out: EC50 Y181C, MT-4 cells, Y181C, MTT method. In kind it is cell-based. Here is the method:
as §1

Data set [7] concerns HIV-1 E138K mutant strain. The data set is described as follows: microbe, parasite or virus in culture. In kind it is cell-based. The following applies: for EC50: Human immunodeficiency virus 1, MT4, read-out: EC50 E138K. As for the experimental part:
as §1

The subject of data set [8] is HIV-1 F227L + V106A mutant strain. The data set is described as follows: microbe, parasite or virus in culture. It is filed as cell-based. As to conditions: for EC50: Human immunodeficiency virus 1, MT4, read-out: EC50 F227L + V106A. Here is the method:
as §1

Where [9] appears, read: mock-infected MT-4 cells, MTT method, read-out: CC50.

Read-outs that look alike come from different tables or passages of the source.

On to `Cc1cc(C#N)cc(C)c1Oc1nc(Nc2ccc(B3OC(C)(C)C(C)(C)O3)cc2)nc2ccccc12` [Compound 3g, 3,5-Dimethyl-4-((2-((4-(4,4,5,5-tetramethyl-1,3,2-dioxaborolan-2-yl)phenyl)amino)quinazolin-4-yl)oxy)benzonitrile], for which the melting point lay within 147 to 149 °C. For the same molecule, in the data set on wild-type HIV-1 (IIIB), the 50% effective concentration (EC50) was found to be 6.17 ± 1.83 µM, the “RF IIIB” value came to 1.0 and the “SI IIIB” value was over 41. Besides, in data set [1], the half-maximal effective concentration (EC50) is over 254 µM and the “RF RES056” value is over 41.1. The molecule further gave a CC50 at 5 days in [2] of over 254 µM.

In turn, `Cc1cc(C#N)cc(C)c1Oc1nc(Nc2ccc(B3OC(C)(C)C(C)(C)O3)cc2)nc2ncsc12` [Compound 3d, 3,5-Dimethyl-4-((5-((4-(4,4,5,5-tetramethyl-1,3,2-dioxaborolan-2-yl)phenyl)amino)thiazolo [4,5-d]pyrimidin-7-yl)oxy)benzonitrile] gave a melting point of 117 to 119 °C. In the data set with wild-type HIV-1 (IIIB), the EC50 was 0.12 ± 0.056 µM, the “RF IIIB” value is recorded as 1.0 and the “SI IIIB” value was determined as 201. For the same molecule, in [1], the EC50 was over 24.1 µM, the “RF RES056” value is over 201 and the “SI RES056” value is on record as under 1. This molecule came in with a CC50 at 5 days in data set [2] of 24.1 ± 3.76 µM.

`Cc1cc(C#N)cc(C)c1Oc1nc(Nc2ccc(B3OC(C)(C)C(C)(C)O3)cc2)nc2scnc12` [Compound 3e, 3,5-Dimethyl-4-((5-((4-(4,4,5,5-tetramethyl-1,3,2-dioxaborolan-2-yl)phenyl)amino)thiazolo [5,4-d]pyrimidin-7-yl)oxy)benzonitrile]: in the data set with wild-type HIV-1 (IIIB), a half-maximal effect (EC50) was put at 0.215 ± 0.091 µM and the “RF IIIB” value was 1.0. In [1], the EC50 was over 26.5 µM and the “RF RES056” value is reported as over 123. Also, the CC50 at 5 days in [2] amounted to 26.5 ± 1.78 µM.

For `Cc1cc(C#N)cc(C)c1Oc1nc(Nc2ccc(B3OC(C)(C)C(C)(C)O3)cc2)nc2c1CCCC2` [Compound 3i, 3,5-Dimethyl-4-((2-((4-(4,4,5,5-tetramethyl-1,3,2-dioxaborolan-2-yl)phenyl)amino) -5,6,7,8-tetrahydroquinazolin-4-yl)oxy)benzonitrile], the melting point is 233 to 235 °C. For the same molecule, in the data set with wild-type HIV-1 (IIIB), the response was half-maximal at 0.191 ± 0.088 µM (EC50), the “RF IIIB” value is 1.0 and the “SI IIIB” value was determined as 145. Further, in data set [1], the 50% effective concentration (EC50) is over 27.7 µM, the “RF RES056” value is recorded as over 145 and the “SI RES056” value is recorded as under 1. Further, the CC50 at 5 days in data set [2] worked out at 27.7 ± 1.27 µM.

The molecule `Cc1cc(C#N)cc(C)c1Oc1nc(Nc2ccc(B3OC(C)(C)C(C)(C)O3)cc2)nc2cccnc12` [Compound 3h, 3,5-Dimethyl-4-((2-((4-(4,4,5,5-tetramethyl-1,3,2-dioxaborolan-2-yl)phenyl)amino)pyrido [3,2-d]pyrimidin-4-yl)oxy)benzonitrile] returned a melting point of 177 to 179 °C. In the data set on wild-type HIV-1 (IIIB), the “fold more potent than 3g” value turned out to be 55 fold, the 50% effective concentration (EC50) worked out at 0.112 ± 0.024 µM, the “RF IIIB” value is 1.0 and the “SI IIIB” value is recorded as 232. In data set [1], the EC50 is over 26 µM, the “RF RES056” value is on record as over 232 and the “SI RES056” value was under 1. It took 26 ± 2.33 µM to reach half-maximal cytotoxicity in data set [2] (CC50 at 5 days).

As for `Cc1cc(C#N)cc(C)c1Oc1nc(Nc2ccc(B3OC(C)(C)C(C)(C)O3)cc2)nc2c1SCCC2` [Compound 3j, 3,5-Dimethyl-4-((2-((4-(4,4,5,5-tetramethyl-1,3,2-dioxaborolan-2-yl)phenyl)amino) -7,8-dihydro-6H-thiopyrano [3,2-d]pyrimidin-4-yl)oxy)benzonitrile], the melting point lay in the range of 201 to 203 °C. In the data set with wild-type HIV-1 (IIIB), the EC50 is 0.141 ± 0.053 µM, the “RF IIIB” value came out at 1.0 and the “SI IIIB” value was 184. For the same molecule, in data set [1], the concentration for a half-maximal effect (EC50) is over 25.9 µM, the “RF RES056” value is over 184 and the “SI RES056” value is recorded as under 1. Moreover, in data set [2], the CC50 at 5 days came out at 25.9 ± 1.41 µM.

With `Cc1cc(C#N)cc(C)c1Oc1nc(Nc2ccc(C#N)cc2)nc(N)c1Br` [ETR, etravirine, reference compound], the EC50 in data set [3] is 0.019 ± 0.007 µM; in [4], 0.008 ± 0.002 µM; in data set [5], 0.003 ± 0.008 µM; in the data set with wild-type HIV-1 (IIIB) it was 0.004 ± 0.001 µM; in data set [1], 0.061 ± 0.034 µM; in data set [6], 0.016 ± 0.005 µM. Also, the EC50 in data set [7] is 0.01 ± 0.005 µM; in data set [8], 0.026 ± 0.017 µM. Besides, the CC50 at 5 days in [2] was over 4.6 µM.

In the case of `O=C1Nc2ccc(Cl)cc2[C@@](C#CC2CC2)(C(F)(F)F)O1` [EFV, efavirenz, reference compound], the 50% effective concentration (EC50) in data set [3] is 0.261 ± 0.118 µM; in data set [4], 0.032 ± 0.008 µM; in [5] it was 0.071 ± 0.02 µM; in the data set on wild-type HIV-1 (IIIB) it was 0.003 ± 0.001 µM; in [1], 0.337 ± 0.149 µM; in data set [6] it was 0.005 ± 0.002 µM. Further, the EC50 in data set [7] was found to be 0.006 ± 0.002 µM. In addition, the CC50 at 5 days in [2] (setting [9]) was over 6.35 µM.

For the molecule `Cc1ccnc2c1NC(=O)c1cccnc1N2C1CC1` [NVP, nevirapine, reference compound], the EC50 was 9.08 ± 2.41 µM in data set [3]; 0.623 ± 0.277 µM in [4]; 0.151 ± 0.037 µM in the data set on wild-type HIV-1 (IIIB); over 15 µM in data set [1]; 5.06 ± 0.922 µM in data set [6]; 0.168 µM in data set [7]. In addition, the EC50 in data set [8] was 8.05 ± 3.54 µM. The “RF Y188L” value in data set [3] (ratio EC50 (resistant viral strain)/EC50 (wild-type viral strain), Y188L) was determined as 60.4. The “RF L100I” value in data set [4] (ratio EC50 (resistant viral strain)/EC50 (wild-type viral strain), L100I) is listed as 4.1. Besides, in data set [5] (ratio EC50 (resistant viral strain)/EC50 (wild-type viral strain), K103N), the “RF K103N” value was determined as 26.1. Besides, the “RF IIIB” value in the data set on wild-type HIV-1 (IIIB) came out at 1.0. For the same molecule, the “RF RES056” value in data set [1] was 99.9. Also, in [6] (ratio EC50 (resistant viral strain)/EC50 (wild-type viral strain), Y181C), the “RF Y181C” value stood at 33.6. In addition, the “RF E138K” value in data set [7] (ratio EC50 (resistant viral strain)/EC50 (wild-type viral strain), E138K) is reported as 1.1. Also, the “RF F227L + V106A” value in [8] (ratio EC50 (resistant viral strain)/EC50 (wild-type viral strain), F227L + V106A) is recorded as 53.5. Further, the 50% cytotoxic concentration (CC50) at 5 days in data set [2] (setting [9]) was over 15 µM.

The molecule `Cc1cc(C#N)cc(C)c1Oc1ccnc(Nc2ccc(B3OC(C)(C)C(C)(C)O3)cc2)n1` [Compound 3f, 3,5-Dimethyl-4-((2-((4-(4,4,5,5-tetramethyl-1,3,2-dioxaborolan-2-yl)phenyl)amino)pyrimidin-4-yl)oxy)benzonitrile] showed a melting point of 202 to 204 °C. In the data set on wild-type HIV-1 (IIIB), the EC50 turned out to be 0.149 ± 0.049 µM, the “RF IIIB” value is reported as 1.0 and the “SI IIIB” value is 206. In [1], the concentration giving a half-maximal response (EC50) was over 30.6 µM, the “RF RES056” value is listed as over 206 and the “SI RES056” value is given as under 1. The molecule further gave a CC50 at 5 days in data set [2] of 30.6 ± 1.92 µM.

As for `Cc1cc(C#N)cc(C)c1Oc1nc(Nc2ccc(B3OC(C)(C)C(C)(C)O3)cc2)nc2sccc12` [Compound 3b, 3,5-Dimethyl-4-((2-((4-(4,4,5,5-tetramethyl-1,3,2-dioxaborolan-2-yl)phenyl)amino)thieno [2,3-d]pyrimidin-4-yl)oxy)benzonitrile], in the data set with wild-type HIV-1 (IIIB), the EC50 amounted to 1.3 ± 0.275 µM and the “RF IIIB” value is on record as 1.0. In [1], the EC50 came out at 174 ± 34.5 µM and the “RF RES056” value was determined as 134. In [2], the CC50 at 5 days was over 254 µM.

Source of the values: article PMC9657321, “Identification of Boronate-Containing Diarylpyrimidine Derivatives as Novel HIV-1 Non-Nucleoside Reverse Transcriptase Inhibitors” (Molecules, 2022).
